Laboratory results reported in PubChem BioAssay AID328 (DTP/NCI, 2004).
Where “and” joins values, the source holds several entries; their conditions need not be identical. Identical values can stand only once. Inconclusive results and toxic doses are left out.

Tested on: BDF1 mice, P388 leukemia ip, median survival T/C
Assay: NCI In Vivo Anticancer Drug Screen. Data for tumor model P388 Leukemia (intraperitoneal) in B6D2F1 (BDF1) mice
Settings: endpoint: median survival time, higher = longer survival
How it was run: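 Steps: implant the tumour, treat one group with compound and another with vehicle, record survival, then divide treated by control.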

With `CC(C)[C@](O)(C(=O)OCC1=CC[N+]2([O-])CC[C@@H](O)[C@@H]12)[C@H](C)O` (stereo partly drawn) the T/C (dose: 6.2 mg/kg/injection, schedule: Q01DX009 (ip), vehicle: water) was 113 % of control, the T/C (dose: 8.0 mg/kg/injection, schedule: Q03HX024 (ip), vehicle: water) was 100 % of control and the T/C (dose: 16.0 mg/kg/injection, schedule: Q03HX008 (ip), vehicle: saline) was 100 % of control. For the same compound, the T/C (dose: 16.0 mg/kg/injection, schedule: Q03HX008 (ip), vehicle: water) was 95 % of control, the T/C (dose: 16.0 mg/kg/injection, schedule: Q03HX016 (ip), vehicle: saline) was 90 % of control and the T/C (dose: 16.0 mg/kg/injection, schedule: Q03HX016 (ip), vehicle: water) was 100 % of control. The T/C (dose: 16.0 mg/kg/injection, schedule: Q03HX024 (ip), vehicle: saline) was 90 % of control, the T/C (dose: 16.0 mg/kg/injection, schedule: Q03HX024 (ip), vehicle: water) was 90 % of control and the T/C (dose: 25.0 mg/kg/injection, schedule: Q01DX009 (ip), vehicle: saline) was 110 % of control. For the same compound, the T/C (dose: 25.0 mg/kg/injection, schedule: Q01DX009 (ip), vehicle: water) was 118 % of control, the T/C (dose: 32.0 mg/kg/injection, schedule: Q03HX008 (ip), vehicle: saline) was 105 % of control and the T/C (dose: 32.0 mg/kg/injection, schedule: Q03HX008 (ip), vehicle: water) was 100 % of control. The T/C (dose: 32.0 mg/kg/injection, schedule: Q03HX016 (ip), vehicle: saline) was 100 % of control, the T/C (dose: 32.0 mg/kg/injection, schedule: Q03HX016 (ip), vehicle: water) was 100 % of control and the T/C (dose: 32.0 mg/kg/injection, schedule: Q03HX024 (ip), vehicle: saline) was 100 % of control. The T/C (dose: 32.0 mg/kg/injection, schedule: Q03HX024 (ip), vehicle: water) was 100 % of control, the T/C (dose: 64.0 mg/kg/injection, schedule: Q01DX009 (ip), vehicle: saline) was 105 % of control and the T/C (dose: 64.0 mg/kg/injection, schedule: Q03HX008 (ip), vehicle: saline) was 100 % of control. For the same compound, the T/C (dose: 64.0 mg/kg/injection, schedule: Q03HX008 (ip), vehicle: water) was 100 % of control, the T/C (dose: 64.0 mg/kg/injection, schedule: Q03HX016 (ip), vehicle: saline) was 105 % of control and the T/C (dose: 64.0 mg/kg/injection, schedule: Q03HX016 (ip), vehicle: water) was 100 % of control. For the same compound, the T/C (dose: 64.0 mg/kg/injection, schedule: Q03HX024 (ip), vehicle: saline) was 105 % of control, the T/C (dose: 64.0 mg/kg/injection, schedule: Q03HX024 (ip), vehicle: water) was 95 % of control and the T/C (dose: 64.0 mg/kg/injection, schedule: Q04DX003 (ip), vehicle: water) was 100 % of control. For the same compound, the T/C (dose: 100.0 mg/kg/injection, schedule: Q04DX002 (ip), vehicle: saline) was 108 % of control, the T/C (dose: 128.0 mg/kg/injection, schedule: Q01DX001 (ip), vehicle: saline) was 95 % of control and the T/C (dose: 128.0 mg/kg/injection, schedule: Q01DX009 (ip), vehicle: saline) was 89 % of control. For the same compound, the T/C (dose: 128.0 mg/kg/injection, schedule: Q01DX009 (sc), vehicle: water) was 95 % of control, the T/C (dose: 128.0 mg/kg/injection, schedule: Q03HX008 (ip), vehicle: saline) was 95 % of control and the T/C (dose: 128.0 mg/kg/injection, schedule: Q03HX016 (ip), vehicle: saline) was 100 % of control. For the same compound, the T/C (dose: 128.0 mg/kg/injection, schedule: Q03HX016 (ip), vehicle: water) was 100 % of control, the T/C (dose: 128.0 mg/kg/injection, schedule: Q03HX024 (ip), vehicle: saline) was 105 % of control and the T/C (dose: 128.0 mg/kg/injection, schedule: Q03HX024 (ip), vehicle: water) was 100 % of control. The T/C (dose: 128.0 mg/kg/injection, schedule: Q04DX003 (ip), vehicle: saline) was 95 % of control, the T/C (dose: 128.0 mg/kg/injection, schedule: Q04DX003 (ip), vehicle: water) was 100 % of control and the T/C (dose: 128.0 mg/kg/injection, schedule: Q08DX002 (ip), vehicle: saline) was 90 % of control. The T/C (dose: 200.0 mg/kg/injection, schedule: Q01DX001 (ip), vehicle: saline) was 95 % of control, the T/C (dose: 200.0 mg/kg/injection, schedule: Q01DX009 (ip), vehicle: other) was 157 % of control and the T/C (dose: 200.0 mg/kg/injection, schedule: Q04DX002 (ip), vehicle: saline) was 100 % of control. The T/C (dose: 250.0 mg/kg/injection, schedule: Q04DX003 (ip), vehicle: water) was 154 % of control, the T/C (dose: 256.0 mg/kg/injection, schedule: Q01DX001 (ip), vehicle: saline) was 90 % of control and the T/C (dose: 256.0 mg/kg/injection, schedule: Q01DX001 (ip), vehicle: water) was 118 % of control. The T/C (dose: 256.0 mg/kg/injection, schedule: Q01DX009 (ip), vehicle: saline) was 96 % of control, the T/C (dose: 256.0 mg/kg/injection, schedule: Q01DX009 (ip), vehicle: water) was 154 % of control and the T/C (dose: 256.0 mg/kg/injection, schedule: Q01DX009 (oral), vehicle: water) was 90 % of control. For the same compound, the T/C (dose: 256.0 mg/kg/injection, schedule: Q01DX009 (sc), vehicle: water) was 100 % of control, the T/C (dose: 256.0 mg/kg/injection, schedule: Q03HX008 (ip), vehicle: saline) was 120 % of control and the T/C (dose: 256.0 mg/kg/injection, schedule: Q03HX016 (ip), vehicle: saline) was 105 % of control. For the same compound, the T/C (dose: 256.0 mg/kg/injection, schedule: Q03HX024 (ip), vehicle: saline) was 95 % of control, the T/C (dose: 256.0 mg/kg/injection, schedule: Q04DX003 (ip), vehicle: saline) was 100 % of control and the T/C (dose: 256.0 mg/kg/injection, schedule: Q04DX003 (ip), vehicle: water) was 104 % of control. For the same compound, the T/C (dose: 288.0 mg/kg/injection, schedule: Q01DX009 (ip), vehicle: water) was 159 % of control, the T/C (dose: 360.0 mg/kg/injection, schedule: Q01DX009 (ip), vehicle: water) was 175 % of control and the T/C (dose: 400.0 mg/kg/injection, schedule: Q01DX009 (ip), vehicle: other) was 105 % of control. The T/C (dose: 500.0 mg/kg/injection, schedule: Q01DX001 (ip), vehicle: water) was 154 % of control, the T/C (dose: 500.0 mg/kg/injection, schedule: Q04DX003 (ip), vehicle: water) was 172 % of control and the T/C (dose: 500.0 mg/kg/injection, schedule: Q08DX002 (ip), vehicle: water) was 163 % of control. For the same compound, the T/C (dose: 512.0 mg/kg/injection, schedule: Q01DX001 (ip), vehicle: saline) was 100 % of control, the T/C (dose: 512.0 mg/kg/injection, schedule: Q01DX001 (ip), vehicle: water) was 118 % of control and the T/C (dose: 512.0 mg/kg/injection, schedule: Q01DX009 (ip), vehicle: saline) was 100 % of control. The T/C (dose: 512.0 mg/kg/injection, schedule: Q01DX009 (ip), vehicle: water) was 172 % of control, the T/C (dose: 512.0 mg/kg/injection, schedule: Q01DX009 (oral), vehicle: water) was 95 % of control and the T/C (dose: 512.0 mg/kg/injection, schedule: Q01DX009 (sc), vehicle: water) was 90 % of control. The T/C (dose: 512.0 mg/kg/injection, schedule: Q04DX003 (ip), vehicle: saline) was 90 % of control, the T/C (dose: 512.0 mg/kg/injection, schedule: Q04DX003 (ip), vehicle: water) was 100 % of control and the T/C (dose: 600.0 mg/kg/injection, schedule: Q01DX009 (ip), vehicle: water) was 163 % of control and 169 % of control. For the same compound, the T/C (dose: 750.0 mg/kg/injection, schedule: Q01DX005 (ip), vehicle: water) was 100 % of control, the T/C (dose: 800.0 mg/kg/injection, schedule: Q01DX001 (ip), vehicle: saline) was 108 % of control and the T/C (dose: 800.0 mg/kg/injection, schedule: Q01DX009 (ip), vehicle: other) was 99 % of control. The T/C (dose: 1000.0 mg/kg/injection, schedule: Q01DX001 (ip), vehicle: water) was 154 % of control, the T/C (dose: 1000.0 mg/kg/injection, schedule: Q04DX003 (ip), vehicle: water) was 195 % of control and the T/C (dose: 1000.0 mg/kg/injection, schedule: Q08DX002 (ip), vehicle: water) was 177 % of control. For the same compound, the T/C (dose: 1024.0 mg/kg/injection, schedule: Q01DX001 (ip), vehicle: saline) was 100 % of control, the T/C (dose: 1024.0 mg/kg/injection, schedule: Q01DX001 (ip), vehicle: water) was 95 % of control and the T/C (dose: 1024.0 mg/kg/injection, schedule: Q01DX009 (ip), vehicle: saline) was 160 % of control. The T/C (dose: 1024.0 mg/kg/injection, schedule: Q01DX009 (oral), vehicle: water) was 90 % of control, the T/C (dose: 1024.0 mg/kg/injection, schedule: Q01DX009 (sc), vehicle: water) was 90 % of control and the T/C (dose: 1024.0 mg/kg/injection, schedule: Q04DX003 (ip), vehicle: saline) was 110 % of control. For the same compound, the T/C (dose: 1024.0 mg/kg/injection, schedule: Q04DX003 (ip), vehicle: water) was 100 % of control, the T/C (dose: 1024.0 mg/kg/injection, schedule: Q08DX002 (ip), vehicle: saline) was 100 % of control and the T/C (dose: 1024.0 mg/kg/injection, schedule: Q08DX002 (ip), vehicle: water) was 95 % of control. The T/C (dose: 1500.0 mg/kg/injection, schedule: Q01DX001 (ip), vehicle: water) was 163 % of control, the T/C (dose: 1500.0 mg/kg/injection, schedule: Q08DX002 (ip), vehicle: water) was 181 % of control and the T/C (dose: 2048.0 mg/kg/injection, schedule: Q01DX001 (ip), vehicle: saline) was 120 % of control. For the same compound, the T/C (dose: 2048.0 mg/kg/injection, schedule: Q01DX001 (ip), vehicle: water) was 113 % of control, the T/C (dose: 2048.0 mg/kg/injection, schedule: Q01DX009 (oral), vehicle: water) was 90 % of control and the T/C (dose: 2048.0 mg/kg/injection, schedule: Q08DX002 (ip), vehicle: saline) was 105 % of control. For the same compound, the T/C (dose: 2048.0 mg/kg/injection, schedule: Q08DX002 (ip), vehicle: water) was 118 % of control.
